# Measured values from patent US9833497B2, “Human originated EGF domain proteins and use of the same” (CHENGDU SOURCEBIO LIMITED-LIABILITY COMPANY, priority 2013, dated 2017).
# Legend:
# Format in all cases: cell-based
# [1] = system: Proteus mirabilis; test: MIC against Gram-negative bacteria: Proteus mirabilis; settings: for MIC against P. mirabilis: Proteus mirabilis; for MIC against P. mirabilis / MIC P. mirabilis: 96-well plate, 37° C., 10 h
# Outline: (§1)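 Purified recombinant human EGF domain proteins are tested by broth dilution in LB against a 5×10^5 CFU/mL inoculum, with two-fold serial dilutions run in triplicate. Plates are incubated at 37° C with shaking, and the MIC is read as the lowest protein concentration without growth.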
# [2] = system: Klebsiella pneumonia; test: MIC against Gram-negative bacteria: Klebsiella pneumonia; settings: for MIC against K. pneumonia: Klebsiella pneumonia; for MIC against K. pneumonia / MIC K. pneumonia: 96-well plate, 37° C., 10 h
# Outline: as §1
# [3] = system: Pseudomonas aeruginosa; test: MIC against Gram-negative bacteria: Pseudomonas aeruginosa; settings: for MIC against P. aeruginosa: Pseudomonas aeruginosa; for MIC against P. aeruginosa / MIC P. aeruginosa: 96-well plate, 37° C., 10 h
# Outline: as §1
# [4] = system: Aeromonas hydrophila; test: MIC against Gram-negative bacteria: Aeromonas hydrophila; settings: for MIC against A. hydrophila: Aeromonas hydrophila; for MIC against A. hydrophila / MIC A. hydrophila: 96-well plate, 37° C., 10 h
# Outline: as §1
# [5] = system: Moraxella catarrhalis; test: MIC against Gram-negative bacteria: Moraxella catarrhalis; settings: for MIC against M. catarrhalis: Moraxella catarrhalis; for MIC against M. catarrhalis / MIC M. catarrhalis: 96-well plate, 37° C., 10 h
# Outline: as §1
# [6] = system: Citrobacter diversus; test: MIC against Gram-negative bacteria: Citrobacter diversus; settings: for MIC against C. diversus: Citrobacter diversus; for MIC against C. diversus / MIC C. diversus: 96-well plate, 37° C., 10 h
# Outline: as §1
# [7] = system: Serratia marcescens; test: MIC against Gram-negative bacteria: Serratia marcescens; settings: for MIC against S. marcescens: Serratia marcescens; for MIC against S. marcescens / MIC S. marcescens: 96-well plate, 37° C., 10 h
# Outline: as §1
# [8] = system: E. coli BL21; test: MIC against Gram-negative bacteria: E. coli BL21; settings: for MIC against E. coli BL21 / MIC E. coli BL21: 96-well plate, 37° C., 10 h
# Outline: as §1
# [9] = system: Proteus vulgaris; test: MIC against Gram-negative bacteria: Proteus vulgaris; settings: for MIC against P. vulgaris: Proteus vulgaris; for MIC against P. vulgaris / MIC P. vulgaris: 96-well plate, 37° C., 10 h
# Outline: as §1
# [10] = system: E. coli DH5α; test: Antibacterial activity: MIC and growth curve against E. coli DH5α in 96-well plate; settings: minimal inhibitory concentration against E. coli DH5α; 96-well plate, 5×10^5 CFU/mL, 37° C., judged after 8 h
# Outline: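 MIC taken as lowest protein level with no bacterial growth, tracked by A600 every 30 min during 37 °C, 175 rpm culture. Two-fold protein series 50-12.5 μg/mL final, triplicate wells, against 5×10^5 CFU/mL of LB-washed mid-log cells.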
# [11] = system: Enterobacter cloacae; test: MIC against Gram-negative bacteria: Enterobacter cloacae; settings: for MIC against E. cloacae: Enterobacter cloacae; for MIC against E. cloacae / MIC E. cloacae: 96-well plate, 37° C., 10 h
# Outline: as §1
substance,measurement,setting,value
PRT148 (LTDICSVSNGGCHPDASCSSTLGSLPLCTCLPGYTGN; listed as Homo sapiens),MIC (μg/mL) P. mirabilis,"[1]; P. mirabilis, 10 h cultivation at 37° C., 5×10^5 CFU/mL",50 µg/mL
same,MIC (μg/mL) K. pneumonia,"[2]; K. pneumonia, 10 h cultivation at 37° C., 5×10^5 CFU/mL",12.5 µg/mL
same,MIC (μg/mL) P. aeruginosa,"[3]; P. aeruginosa, 10 h cultivation at 37° C., 5×10^5 CFU/mL",25 µg/mL
same,MIC (μg/mL) A. hydrophila,"[4]; A. hydrophila, 10 h cultivation at 37° C., 5×10^5 CFU/mL",12.5 µg/mL
same,MIC (μg/mL) M. catarrhalis,"[5]; M. catarrhalis, 10 h cultivation at 37° C., 5×10^5 CFU/mL",12.5 µg/mL
same,MIC (μg/mL) C. diversus,"[6]; C. diversus, 10 h cultivation at 37° C., 5×10^5 CFU/mL",50 µg/mL
same,MIC (μg/mL) S. marcescens,"[7]; S. marcescens, 10 h cultivation at 37° C., 5×10^5 CFU/mL",50 µg/mL
same,MIC (μg/mL) E. coli BL21,"[8]; E. coli BL21, 10 h cultivation at 37° C., 5×10^5 CFU/mL",50 µg/mL
same,MIC (μg/mL) P. vulgaris,"[9]; P. vulgaris, 10 h cultivation at 37° C., 5×10^5 CFU/mL",12.5 µg/mL
same,MIC,[10],25 µg/mL
same,MIC (μg/mL) E. cloacae,"[11]; E. cloacae, 10 h cultivation at 37° C., 5×10^5 CFU/mL",50 µg/mL
PRT1339 (EINNCLLPSAGGCHDNASCLYVGPGQNECECKKGFRGNGIDCE; listed as Homo sapiens),MIC against P. mirabilis,[1]; 5×10^5 CFU/mL,25 µg/mL
same,MIC against K. pneumonia,[2]; 5×10^5 CFU/mL,25 µg/mL
same,MIC against P. aeruginosa,[3]; 5×10^5 CFU/mL,12.5 µg/mL
same,MIC against A. hydrophila,[4]; 5×10^5 CFU/mL,50 µg/mL
same,MIC against M. catarrhalis,[5]; 5×10^5 CFU/mL,12.5 µg/mL
same,MIC against C. diversus,[6]; 5×10^5 CFU/mL,25 µg/mL
same,MIC against S. marcescens,[7]; 5×10^5 CFU/mL,25 µg/mL
same,MIC against E. coli BL21,"[8]; E. coli BL21, 5×10^5 CFU/mL",12.5 µg/mL
same,MIC against P. vulgaris,[9]; 5×10^5 CFU/mL,50 µg/mL
same,MIC,[10],25 µg/mL
same,MIC against E. cloacae,[11]; 5×10^5 CFU/mL,12.5 µg/mL
PRT977 (EVDPCLAQPCQHGGTCRGYMGGYMCECLPGYNGDNCE; listed as Homo sapiens),MIC,"[1]; P. mirabilis, 10 h cultivation at 37° C.",12.5 µg/mL
same,MIC,"[2]; K. pneumonia, 10 h cultivation at 37° C.",50 µg/mL
same,MIC,"[3]; P. aeruginosa, 10 h cultivation at 37° C.",12.5 µg/mL
same,MIC,"[4]; A. hydrophila, 10 h cultivation at 37° C.",25 µg/mL
same,MIC,"[5]; M. catarrhalis, 10 h cultivation at 37° C.",25 µg/mL
same,MIC,"[6]; C. diversus, 10 h cultivation at 37° C.",50 µg/mL
same,MIC,"[7]; S. marcescens, 10 h cultivation at 37° C.",25 µg/mL
same,MIC,"[8]; E. coli BL21, 10 h cultivation at 37° C.",50 µg/mL
same,MIC,"[9]; P. vulgaris, 10 h cultivation at 37° C.",50 µg/mL
same,MIC,[10],12.5 µg/mL
same,MIC,"[11]; E. cloacae, 10 h cultivation at 37° C.",12.5 µg/mL
PRT1213 (HSDYCSQNTCLNGGKCSWTHGAGYVCKCPPQFSGKHCE; listed as Homo sapiens),MIC against P. mirabilis,[1]; 5×10^5 CFU/mL,25 µg/mL
same,MIC against K. pneumonia,[2]; 5×10^5 CFU/mL,25 µg/mL
same,MIC against P. aeruginosa,[3]; 5×10^5 CFU/mL,50 µg/mL
same,MIC against A. hydrophila,[4]; 5×10^5 CFU/mL,50 µg/mL
same,MIC against M. catarrhalis,[5]; 5×10^5 CFU/mL,12.5 µg/mL
same,MIC against C. diversus,[6]; 5×10^5 CFU/mL,25 µg/mL
same,MIC against S. marcescens,[7]; 5×10^5 CFU/mL,25 µg/mL
same,MIC against E. coli BL21,"[8]; E. coli BL21, 5×10^5 CFU/mL",25 µg/mL
same,MIC against P. vulgaris,[9]; 5×10^5 CFU/mL,50 µg/mL
same,MIC,[10],25 µg/mL
same,MIC against E. cloacae,[11]; 5×10^5 CFU/mL,100 µg/mL
PRT632 (CKCHPLGSQEDQCHPKTGQCTCRPGVTGQACDRCQLGFFGFSIKGCRA; listed as Homo sapiens),MIC P. mirabilis,[1]; 5×10^5 CFU/mL,12.5 µg/mL
same,MIC K. pneumonia,[2]; 5×10^5 CFU/mL,25 µg/mL
same,MIC P. aeruginosa,[3]; 5×10^5 CFU/mL,12.5 µg/mL
same,MIC A. hydrophila,[4]; 5×10^5 CFU/mL,25 µg/mL
same,MIC M. catarrhalis,[5]; 5×10^5 CFU/mL,25 µg/mL
same,MIC C. diversus,[6]; 5×10^5 CFU/mL,50 µg/mL
same,MIC S. marcescens,[7]; 5×10^5 CFU/mL,50 µg/mL
same,MIC E. coli BL21,[8]; 5×10^5 CFU/mL,25 µg/mL
same,MIC P. vulgaris,[9]; 5×10^5 CFU/mL,25 µg/mL
same,MIC,[10],12.5 µg/mL
same,MIC E. cloacae,[11]; 5×10^5 CFU/mL,12.5 µg/mL
PRT691 (DINECDEAEAASPLCVNARCLNTDGSFRCICRPGFAPTHQPHHCA; listed as Homo sapiens),MIC P. mirabilis,[1]; 5×10^5 CFU/mL,25 µg/mL
same,MIC K. pneumonia,[2]; 5×10^5 CFU/mL,50 µg/mL
same,MIC P. aeruginosa,[3]; 5×10^5 CFU/mL,12.5 µg/mL
same,MIC A. hydrophila,[4]; 5×10^5 CFU/mL,12.5 µg/mL
same,MIC M. catarrhalis,[5]; 5×10^5 CFU/mL,12.5 µg/mL
same,MIC C. diversus,[6]; 5×10^5 CFU/mL,50 µg/mL
same,MIC S. marcescens,[7]; 5×10^5 CFU/mL,12.5 µg/mL
same,MIC E. coli BL21,[8]; 5×10^5 CFU/mL,50 µg/mL
same,MIC P. vulgaris,[9]; 5×10^5 CFU/mL,50 µg/mL
same,MIC,[10],25 µg/mL
same,MIC E. cloacae,[11]; 5×10^5 CFU/mL,25 µg/mL
PRT1331 (EIDPCADGLNGGCHEHATCKMTGPGKHKCECKSHYVGDGLNCE; listed as Homo sapiens),MIC against P. mirabilis,[1]; 5×10^5 CFU/mL,25 µg/mL
same,MIC against K. pneumonia,[2]; 5×10^5 CFU/mL,12.5 µg/mL
same,MIC against P. aeruginosa,[3]; 5×10^5 CFU/mL,25 µg/mL
same,MIC against A. hydrophila,[4]; 5×10^5 CFU/mL,12.5 µg/mL
same,MIC against M. catarrhalis,[5]; 5×10^5 CFU/mL,50 µg/mL
same,MIC against C. diversus,[6]; 5×10^5 CFU/mL,25 µg/mL
same,MIC against S. marcescens,[7]; 5×10^5 CFU/mL,25 µg/mL
same,MIC against E. coli BL21,"[8]; E. coli BL21, 5×10^5 CFU/mL",50 µg/mL
same,MIC against P. vulgaris,[9]; 5×10^5 CFU/mL,12.5 µg/mL
same,MIC,[10],25 µg/mL
same,MIC against E. cloacae,[11]; 5×10^5 CFU/mL,50 µg/mL
